The source of these data is ChEMBL document CHEMBL2073935, “Cloning and functional characterization of a rat renal organic cation transporter isoform (rOCT1A)” (J Biol Chem, 1997).

Series [1] concerns the target T1, Solute carrier family 22 member 1 (Rattus norvegicus, UniProt Q63089).
T1 sequence (Q63089 whole entry): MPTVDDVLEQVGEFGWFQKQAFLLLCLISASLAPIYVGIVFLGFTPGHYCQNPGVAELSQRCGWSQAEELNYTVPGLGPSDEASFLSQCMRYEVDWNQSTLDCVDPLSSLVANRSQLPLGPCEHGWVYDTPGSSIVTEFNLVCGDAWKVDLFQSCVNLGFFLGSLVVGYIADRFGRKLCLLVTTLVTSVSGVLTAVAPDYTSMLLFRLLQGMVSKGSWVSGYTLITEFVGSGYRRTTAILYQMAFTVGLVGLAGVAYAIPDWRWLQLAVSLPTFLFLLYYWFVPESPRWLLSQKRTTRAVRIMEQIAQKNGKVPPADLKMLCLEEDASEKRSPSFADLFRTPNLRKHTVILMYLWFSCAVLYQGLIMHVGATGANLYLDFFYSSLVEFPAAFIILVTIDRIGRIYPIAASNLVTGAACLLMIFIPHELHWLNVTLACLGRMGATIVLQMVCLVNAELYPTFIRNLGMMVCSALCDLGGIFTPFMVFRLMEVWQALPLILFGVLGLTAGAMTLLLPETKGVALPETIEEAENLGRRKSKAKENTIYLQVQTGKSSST
The series is described as follows: TP_TRANSPORTER: inhibition of TEA uptake (TEA: 500 uM, PAH: 5000 uM) in OCT1A expressing Xenopus laevis oocytes. The following applies: oocyte. The class given is functional, cell-based.

In series [2] the target is T1, Solute carrier family 22 member 1. The series is described as follows: TP_TRANSPORTER: inhibition of TEA uptake (TEA: 500 uM, Guanidine: 5000 uM) in OCT1A expressing Xenopus laevis oocytes. In kind it is functional, cell-based. The following applies: oocyte.
Series [3] has the same target. The series is described as follows: TP_TRANSPORTER: inhibition of TEA uptake (basolateral to cell) (TEA: 500 uM, NMN: 5000 uM) in OCT1A expressing Xenopus laevis oocytes. The class given is functional, cell-based. The following applies: oocyte.
For series [4] the target is unchanged. Put plainly: TP_TRANSPORTER: inhibition of TEA uptake (TEA: 500 uM, Procainamide: 5000 uM) in OCT1A expressing Xenopus laevis oocytes. The class given is functional, cell-based. Conditions: oocyte.
Substrate in series [5]: CC[N+](CC)(CC)CC
Put plainly: cells, lysate or membranes named.

The term Km denotes the substrate concentration at which the rate is half of its maximum.

Consider `Nc1ccc(C(=O)NCC(=O)O)cc1` [AMINOHIPPURIC ACID], for which, in series [1], the Activity entry is “inhibitor [+]”.
Regarding `N=C(N)N` [GUANIDINE], in series [2], the Activity result was “inhibitor [+]”.
As to `CNC(=O)c1cccnc1` [NICOTINYL METHYLAMIDE], the Activity result in series [3] is “inhibitor [+]”.
Turning to `CCN(CC)CCNC(=O)c1ccc(N)cc1` [PROCAINAMIDE], the Activity result in series [4] is “inhibitor [+]”.

B1: Solute carrier family 22 member 1 (Rattus norvegicus) (protein)
chain: MPTVDDVLEQVGEFGWFQKQAFLLLCLISASLAPIYVGIVFLGFTPGHYCQNPGVAELSQRCGWSQAEELNYTVPGLGPSDEASFLSQCMRYEVDWNQSTLDCVDPLSSLVANRSQLPLGPCEHGWVYDTPGSSIVTEFNLVCGDAWKVDLFQSCVNLGFFLGSLVVGYIADRFGRKLCLLVTTLVTSVSGVLTAVAPDYTSMLLFRLLQGMVSKGSWVSGYTLITEFVGSGYRRTTAILYQMAFTVGLVGLAGVAYAIPDWRWLQLAVSLPTFLFLLYYWFVPESPRWLLSQKRTTRAVRIMEQIAQKNGKVPPADLKMLCLEEDASEKRSPSFADLFRTPNLRKHTVILMYLWFSCAVLYQGLIMHVGATGANLYLDFFYSSLVEFPAAFIILVTIDRIGRIYPIAASNLVTGAACLLMIFIPHELHWLNVTLACLGRMGATIVLQMVCLVNAELYPTFIRNLGMMVCSALCDLGGIFTPFMVFRLMEVWQALPLILFGVLGLTAGAMTLLLPETKGVALPETIEEAENLGRRKSKAKENTIYLQVQTGKSSST
In the case of B1, the Km in series [5] is 42 µM.
